We go through 12 molecules from ChEMBL document CHEMBL1201862, “PubChem BioAssay data set” (2004).

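The compound was tested at five concentrations on cells cultured in 96-well plates, with a 48-hour exposure period. GI50 = concentration required for 50% inhibition of growth.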 Calls of active or inactive are those of the source. Rule as the data show it: active = GI50 up to about 1.1 µM and inactive = higher.

What all share (assay): NCI tumour cell line growth inhibition, 48 h
The test system of assay [1] is A549.
Assay [2] relates to ACHN.
Assay [3] has as its system CAKI-1.
Assay [4] deals with CCRF-CEM.
The subject of assay [5] is HCT-15.
For assay [6], the system named is HT-29.
The test system of assay [7] is IGROV-1.
Assay [8] relates to KM12.
Assay [9] has as its system LOX IMVI.
For assay [10], the system named is NCI-H226.
Assay [11] concerns NCI-H460.
For assay [12], the system named is RXF 393.
Assay [13] deals with SK-MEL-5.
Assay [14] relates to SR.
Assay [15] has as its system TK-10.
The subject of assay [16] is UO-31.
Assay [17] has as its system COLO 205.
The subject of assay [18] is RPMI-8226.
Assay [19] has as its system SK-OV-3.
Assay [20] concerns HCC 2998.

On to `COc1ccc(CCCC(=O)O)c(C)c1`, for which the GI50 in assay [1] is 58.6 µM (inactive); in [2] it was 35.1 µM (inactive); in assay [3], 17.8 µM (inactive); in [4], 17.2 µM (inactive); in [5], > 100 µM; in assay [6], > 100 µM (inactive). Also, the GI50 in assay [7] is 45.1 µM (inactive); in [8], 36.4 µM (inactive); in assay [9] it was 30.1 µM (inactive); in assay [10], 22.7 µM (inactive); in [11], 11.7 µM (inactive); in assay [12], 37.1 µM (inactive). Further, the GI50 was 40.3 µM (inactive) in assay [13], 9.48 µM (inactive) in assay [14], 81.8 µM (inactive) in assay [15] and > 100 µM (inactive) in assay [16].

Turning to `O=C(O)C(CCc1ccccc1)N1C(=O)c2ccccc2C1=O` (configuration not stated), the GI50 in [1] is > 100 µM (inactive); in assay [2], > 100 µM (inactive); in [3] it was > 100 µM (inactive); in assay [4], > 100 µM (inactive); in assay [17], > 100 µM (inactive); in assay [5], > 100 µM. The GI50 in assay [6], in assay [7], in [8], in assay [9], in assay [10] and in assay [11] was > 100 µM (inactive) each time. In addition, the GI50 in assay [18], in [12], in [13], in [19], in assay [14] and in assay [15] was > 100 µM (inactive) in each case. Further, in assay [16], the GI50 was > 100 µM (inactive).

As to `CCOC(=O)CSc1c(C(=O)OCC)c(=O)n(-c2ccccc2)c(=S)n1-c1ccccc1`, the GI50 in [1] was 32.1 µM (inactive); in [2], 36 µM (inactive); in assay [3], > 100 µM (inactive); in [4] it was 4.92 µM (inactive); in assay [17] it was 65.8 µM (inactive); in assay [5] it was 21.5 µM. Also, the GI50 in assay [6] is 54.3 µM (inactive); in [7], 20.5 µM (inactive); in assay [8] it was 59.2 µM (inactive); in assay [9], 15.6 µM (inactive); in assay [10] it was 36.5 µM (inactive); in assay [11], 21.6 µM (inactive). The GI50 is 37.5 µM (inactive) in assay [18]; 23.5 µM (inactive) in assay [13]; 89.5 µM (inactive) in [19]; 13.7 µM (inactive) in assay [14]; > 100 µM (inactive) in assay [15]; 26.9 µM (inactive) in [16].

Consider `CN(C)c1ccc(C2SCC(=O)N2NS(=O)(=O)c2cccc(C(=O)O)c2)cc1` (configuration not stated), for which the GI50 was 99.3 µM (inactive) in assay [1]; > 100 µM (inactive) in assay [2]; > 100 µM (inactive) in [3]; 0.731 µM (active) in assay [4]; > 100 µM (inactive) in assay [17]; > 100 µM (inactive) in assay [20]. For the same molecule, the GI50 is 76.9 µM in assay [5]; > 100 µM (inactive) in [6]; > 100 µM (inactive) in [7]; > 100 µM (inactive) in [8]; > 100 µM (inactive) in assay [9]; 52 µM (inactive) in [10]. Further, the GI50 in assay [11] was 76.2 µM (inactive); in [18] it was 45.9 µM (inactive); in [12] it was > 100 µM (inactive); in assay [13] it was > 100 µM (inactive); in assay [19], > 100 µM (inactive); in assay [15], > 100 µM (inactive). Also, in [16], the GI50 is 72.8 µM (inactive).

Consider `Cc1cn(Cc2cnnn2CC2OC(n3cc(C)c(=O)[nH]c3=O)CC2O)c(=O)[nH]c1=O` (configuration not stated), for which the GI50 in assay [1], in [2], in [3], in [4], in [17] and in [20] was > 100 µM (inactive) in each case. The GI50 in [5] is > 100 µM; in assay [7] it was > 100 µM (inactive); in assay [8] it was > 100 µM (inactive); in assay [9], > 100 µM (inactive); in [10], > 100 µM (inactive); in [18] it was > 100 µM (inactive). The GI50 in [12], in assay [13], in assay [19], in assay [15] and in assay [16] was > 100 µM (inactive) in each case.

`COc1cc(C(=O)C/C(CCC(=O)Nc2ccc(Cl)cc2Cl)=N/NC(=O)C(=O)NN)ccc1O`: the GI50 in assay [1] is > 100 µM (inactive); in assay [2] it was > 100 µM (inactive); in [3], 46.2 µM (inactive); in assay [4] it was > 100 µM (inactive); in assay [17], > 100 µM (inactive); in assay [20], > 100 µM (inactive). The GI50 in [5] was > 100 µM; in assay [6] it was > 100 µM (inactive); in assay [7], > 100 µM (inactive); in [8], > 100 µM (inactive); in assay [9], 43.3 µM (inactive); in assay [10] it was > 100 µM (inactive). Further, the GI50 in assay [11], in assay [12], in [13], in assay [19], in [15] and in [16] was > 100 µM (inactive) in each case.

Take `Cc1cc(N(CCC#N)S(=O)(=O)c2ccccc2)ccc1/C=N\c1cccc(C(=O)O)c1`: the GI50 in assay [1], in assay [2], in assay [3], in [4], in assay [17] and in assay [20] was > 100 µM (inactive) throughout. Further, the GI50 is > 100 µM in assay [5]; > 100 µM (inactive) in assay [6]; > 100 µM (inactive) in assay [7]; > 100 µM (inactive) in [10]; > 100 µM (inactive) in assay [11]; > 100 µM (inactive) in [18]. The GI50 is > 100 µM (inactive) in assay [12]; 83.6 µM (inactive) in assay [13]; > 100 µM (inactive) in assay [19]; > 100 µM (inactive) in [15]; 53.3 µM (inactive) in assay [16].

`COc1ccc(C2COc3cc(O)c(O)cc3C2)cc1` (configuration not stated): the GI50 in assay [1] is 48.8 µM (inactive); in assay [3], 13.7 µM (inactive); in assay [4], 2.86 µM (inactive); in assay [17], 10.6 µM (inactive); in [20] it was 21.4 µM (inactive); in assay [5], 10.2 µM. Further, the GI50 in assay [6] is 40.7 µM (inactive); in assay [7] it was 16.7 µM (inactive); in assay [8], 39.7 µM (inactive); in assay [9], 32.3 µM (inactive); in [10] it was 39.6 µM (inactive); in assay [11] it was 24 µM (inactive). Moreover, the GI50 in assay [18] is 7.45 µM (inactive); in [12], 6.87 µM (inactive); in [13], 24.4 µM (inactive); in assay [19], 86.3 µM (inactive); in assay [16], 56.2 µM (inactive).

Turning to `CCOC(=O)Nc1ccc(S(=O)(=O)NCCCl)cc1.CCOC(=O)Nc1ccc(S(=O)(=O)NCCCl)cc1.O=C(O)c1ccc(/N=N/Cl)cc1O`, the GI50 in assay [1], in assay [2], in assay [3], in [4], in assay [17] and in assay [20] was > 100 µM (inactive) each time. For the same molecule, the GI50 in assay [5] was > 100 µM; in [6], > 100 µM (inactive); in assay [7], > 100 µM (inactive); in assay [8], > 100 µM (inactive); in assay [10], > 100 µM (inactive); in assay [13], > 100 µM (inactive). Also, the GI50 in [19], in assay [14], in assay [15] and in [16] was > 100 µM (inactive) each time.

Consider `NC1CCCCC1.O=P(O)(O)C(CSc1ccccc1)P(=O)(O)O`, for which the GI50 in assay [1] is > 100 µM (inactive); in [3], > 100 µM (inactive); in [4], > 100 µM (inactive); in assay [17], > 100 µM (inactive); in [20] it was > 100 µM (inactive); in assay [5] it was > 100 µM. Further, the GI50 in assay [6], in [7], in assay [8], in assay [9], in assay [10] and in [11] was > 100 µM (inactive) throughout. In addition, the GI50 in assay [18], in assay [12], in assay [13], in assay [19] and in [16] was > 100 µM (inactive) each time.

For the molecule `CN1C(=O)CN=C(c2ccccc2F)c2cc(N=C=S)ccc21`, the GI50 in [1] was 33.9 µM (inactive); in [2], 25.5 µM (inactive); in assay [3], 11.3 µM (inactive); in assay [4], 19.2 µM (inactive); in assay [20], 50.8 µM (inactive); in [5] it was 35.8 µM. In addition, the GI50 was 34.2 µM (inactive) in [6]; 38.7 µM (inactive) in [7]; 44.6 µM (inactive) in assay [8]; 41.4 µM (inactive) in [9]; 36.6 µM (inactive) in assay [11]; 36.6 µM (inactive) in assay [12]. Moreover, the GI50 in assay [19] was > 100 µM (inactive); in assay [15] it was 37.4 µM (inactive); in assay [16], 17.1 µM (inactive).

For `CCCCC1=C(C(=O)N2CCOCC2)C2(OCCO2)C1=O`, the GI50 was 18 µM (inactive) in assay [1]; 17.4 µM (inactive) in assay [2]; 21.9 µM (inactive) in [3]; 32.2 µM (inactive) in assay [4]; 17.7 µM (inactive) in assay [17]; 18.2 µM in assay [5]. Besides, the GI50 in assay [6] was 18.8 µM (inactive); in assay [7], 17.9 µM (inactive); in [8], 20.4 µM (inactive); in assay [9], 12.8 µM (inactive); in [10], 2.86 µM (inactive); in [11] it was 24.8 µM (inactive). The GI50 is 21.1 µM (inactive) in assay [12]; 16.5 µM (inactive) in assay [13]; 62.4 µM (inactive) in assay [19]; 83.8 µM (inactive) in assay [14]; 33.3 µM (inactive) in assay [15]; 15.5 µM (inactive) in assay [16].
